Experimental data reported in ChEMBL document CHEMBL1158177, “Synthesis and structure guided evaluation of estrogen agonist and antagonist activities of some new tetrazolyl indole derivatives” (2008).
Active and inactive are the calls of the source. No cut-off for these calls is given here.

Key:
[1] = biological target: T1, Estrogen receptor (Rattus norvegicus) (UniProt P06211); assay: Displacement of [3H]estradiol from estrogen receptor in uterine cytosol of estradiol primed rat relative to estradiol; conditions: Uterus
T1 sequence (whole entry): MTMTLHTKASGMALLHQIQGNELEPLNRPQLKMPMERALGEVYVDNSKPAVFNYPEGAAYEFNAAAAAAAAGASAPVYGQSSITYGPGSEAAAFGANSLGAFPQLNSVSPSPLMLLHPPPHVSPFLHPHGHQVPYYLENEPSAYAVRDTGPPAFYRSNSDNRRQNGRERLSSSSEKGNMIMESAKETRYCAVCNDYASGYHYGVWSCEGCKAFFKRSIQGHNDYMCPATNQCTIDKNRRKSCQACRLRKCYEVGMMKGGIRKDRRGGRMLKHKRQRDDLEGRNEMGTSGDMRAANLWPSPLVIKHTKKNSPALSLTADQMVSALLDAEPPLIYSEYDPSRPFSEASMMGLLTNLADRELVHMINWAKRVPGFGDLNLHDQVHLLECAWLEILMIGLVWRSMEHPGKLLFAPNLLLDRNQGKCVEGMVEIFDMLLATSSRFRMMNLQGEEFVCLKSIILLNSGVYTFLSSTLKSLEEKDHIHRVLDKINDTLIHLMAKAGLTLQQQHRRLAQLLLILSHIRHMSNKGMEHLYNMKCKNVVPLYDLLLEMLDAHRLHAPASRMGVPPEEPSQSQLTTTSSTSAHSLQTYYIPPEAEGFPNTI

Rattus norvegicus [2] = assay: Antiimplantation activity in Sprague-Dawley rat uterus at 10 mg/kg, po for 7 days measured on day 11; format: functional
Rattus norvegicus [3] = assay: Antiestrogenic activity in ovariectomised Sprague-Dawley rat assessed as inhibition of estradiol-induced uterine weight at 10 mg/kg, po once daily for three days measured on day 4 relative to control; format: functional
Rattus norvegicus [4] = assay: Estrogenic activity in ovariectomised Sprague-Dawley rat assessed as uterine weight gain at 10 mg/kg, po once daily for three days after 24 hrs of last treatment relative to control; format: functional
Rattus norvegicus [5] = assay: Antiimplantation activity in Sprague-Dawley rat uterus at 5 mg/kg, po for 7 days measured on day 11; format: functional

SMILES | RBA [1] | Activity (Rattus norvegicus [2]) | inhibition in vivo at 10 mg/kg (Rattus norvegicus [3]) | Activity (Rattus norvegicus [4]) | Activity (Rattus norvegicus [5])
c1ccc2c(c1)SCCc1c-2n(CCc2nnn(CCN3CCCCC3)n2)c2ccccc12 | 0.0125% | inactive | 6% | – | –
c1ccc2c(c1)CCCc1c-2n(CCc2nnnn2CCN2CCCCC2)c2ccccc12 | < 0.001% | inactive | – | 40% | –
c1ccc2c(c1)SCCc1c-2n(CCc2nnnn2CCN2CCCCC2)c2ccccc12 | < 0.001% | inactive | 2% | 23% | –
c1ccc2c(c1)CCCc1c-2n(CCc2nnnn2CCN2CCCC2)c2ccccc12 | 0.0125% | 67% | 7% | 61% | –
c1ccc2c(c1)SCCc1c-2n(CCc2nnn(CCN3CCCC3)n2)c2ccccc12 | < 0.001% | inactive | 1% | 25% | –
c1ccc2c(c1)SCCc1c-2n(CCc2nnnn2CCN2CCCC2)c2ccccc12 | < 0.001% | inactive | – | 39% | –
c1ccc2c(c1)OCCc1c-2n(CCc2nnnn2CCN2CCCC2)c2ccccc12 | < 0.001% | inactive | – | 40% | –

The next lines start with results.

RBA [1] | SMILES | Activity (Rattus norvegicus [2]) | inhibition in vivo at 10 mg/kg (Rattus norvegicus [3]) | Activity (Rattus norvegicus [4]) | Activity (Rattus norvegicus [5])
0.04% | c1ccc2c(c1)OCCc1c-2n(CCc2nnn(CCN3CCCC3)n2)c2ccccc12 | inactive | 12% | 29% | –
0.16% | c1ccc2c(c1)CCCc1c-2n(CCc2nnn(CCN3CCCC3)n2)c2ccccc12 | 100% | 3% | 33% | 67%
< 0.001% | c1ccc2c(c1)OCCc1c-2n(CCc2nnnn2CCN2CCCCC2)c2ccccc12 | inactive | 1% | 44% | –
0.011% | c1ccc2c(c1)CCCc1c-2n(CCc2nnn(CCN3CCCCC3)n2)c2ccccc12 | inactive | – | – | –
0.011% | c1ccc2c(c1)OCCc1c-2n(CCc2nnn(CCN3CCCCC3)n2)c2ccccc12 | inactive | – | 28% | –
